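Grown in 96-well plates, cells were treated for 48 hours with each compound at five concentrations. Insufficient inhibition: endpoint recorded as highest concentration tested. At the GI50, growth is halved.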 Activity calls are given as the source filed them. Cut-off read from the data, not from the text of the source: active = GI50 up to about 1.1 µM and inactive = higher.
Columns and labels:
Experiment in all cases: DTP human tumour cell line panel, 48 h
DMS-114 = test system: DMS-114
DMS-273 = test system: DMS-273
KM-20L2 = test system: KM-20L2
LXFL 529 = test system: LXFL 529
M19-MEL = test system: M19-MEL
RXF 631 = test system: RXF 631
HOP-18 = test system: HOP-18
SNB-78 = test system: SNB-78
XF498 = test system: XF498

SMILES	GI50 (DMS-114)	GI50 (DMS-273)	GI50 (KM-20L2)	GI50 (LXFL 529)	GI50 (M19-MEL)	GI50 (RXF 631)	GI50 (HOP-18)	GI50 (SNB-78)	GI50 (XF498)
COc1cc(C(C)c2cc3c(cc2OCCN)OCO3)cc(OC)c1OC (stereo not given)	52 µM (inactive)	> 100 µM (inactive)	28.8 µM (inactive)	75.5 µM (inactive)	39.8 µM (inactive)	> 100 µM (inactive)	–	–	–
CN(CCc1ccccn1)c1nc(=[N+](C)C)ss1	> 100 µM (inactive)	> 100 µM (inactive)	> 100 µM (inactive)	72.9 µM (inactive)	78.5 µM (inactive)	> 100 µM (inactive)	> 100 µM (inactive)	> 100 µM (inactive)	> 100 µM (inactive)
CCCCCCCCCC[C@@H](O)[C@@H]1CC[C@H]([C@H]2CC[C@@H]([C@@H](O)CCCCCCCCCC[C@H]3CC(CC(C)=O)C(=O)O3)O2)O1 (stereo not given in full)	< 0.01 µM (active)	10.3 µM (inactive)	14.6 µM (inactive)	3.3 µM (inactive)	13.9 µM (inactive)	8.91 µM (inactive)	–	10.9 µM (inactive)	–
N=C(N)Cn1cnc2ccccc21	> 100 µM (inactive)	–	> 100 µM (inactive)	> 100 µM (inactive)	> 100 µM (inactive)	–	> 100 µM (inactive)	> 100 µM (inactive)	–
Cn1c(C2CCCc3c2c2ccccc2n3C)cc2ccccc21 (stereo not given)	34.3 µM (inactive)	57.3 µM (inactive)	179 µM (inactive)	121 µM (inactive)	85.5 µM (inactive)	126 µM (inactive)	8.02 µM (inactive)	–	–
C=CCN1C(=O)C(=O)N(CC=C)C(=O)C1=O	> 100 µM (inactive)	> 100 µM (inactive)	> 100 µM (inactive)	> 100 µM (inactive)	> 100 µM (inactive)	–	–	> 100 µM (inactive)	> 100 µM (inactive)
COC(=O)/C(C#N)=C1\CCC(O)N1 (stereo not given)	> 100 µM (inactive)	> 100 µM (inactive)	> 100 µM (inactive)	> 100 µM (inactive)	> 100 µM (inactive)	–	> 100 µM (inactive)	> 100 µM (inactive)	> 100 µM (inactive)
C/C(=N/NC(N)=S)C(CN(C)C)C(C1=C(O)c2ccccc2OC1)c1ccccc1 (stereo not given)	> 100 µM (inactive)	> 100 µM (inactive)	> 100 µM (inactive)	> 100 µM (inactive)	> 100 µM (inactive)	–	> 100 µM (inactive)	> 100 µM (inactive)	> 100 µM (inactive)
O=C(O)C1CCC(=O)N1C(=O)C(Cl)c1ccccc1 (stereo not given)	> 100 µM (inactive)	> 100 µM (inactive)	> 100 µM (inactive)	> 100 µM (inactive)	> 100 µM (inactive)	> 100 µM (inactive)	> 100 µM (inactive)	> 100 µM (inactive)	> 100 µM (inactive)
COc1cc2ccnc([C@@H](OC(=O)c3ccccc3)c3ccc(OC)c(OC)c3OC)c2cc1OC	33.1 µM (inactive)	> 10 µM (inactive)	32.3 µM (inactive)	30.8 µM (inactive)	73.6 µM (inactive)	50 µM (inactive)	> 100 µM (inactive)	50.5 µM (inactive)	–
Cc1c(C(=O)C/C(=N\O)C(=O)Nc2cc(Cl)c(Cl)cc2Cl)[n+]([O-])c2ccccc2[n+]1[O-]	4.37 µM (inactive)	17.1 µM (inactive)	15.9 µM (inactive)	15 µM (inactive)	2.2 µM (inactive)	–	20.7 µM (inactive)	41.3 µM (inactive)	25.9 µM (inactive)
CC/N=C(/C#N)NCC	37.6 µM (inactive)	44.5 µM (inactive)	> 100 µM (inactive)	> 100 µM (inactive)	> 100 µM (inactive)	–	> 100 µM (inactive)	> 100 µM (inactive)	> 100 µM (inactive)
Cc1c2c(ccc3ccccc32)c[n+]2ccccc12	3.24 µM (inactive)	12.7 µM (inactive)	12.6 µM (inactive)	5.09 µM (inactive)	–	–	–	–	–
CCCCCCCCCCCC(=O)CC(=O)c1c(O)cccc1O	18.8 µM (inactive)	18.4 µM (inactive)	20.5 µM (inactive)	18.2 µM (inactive)	18.3 µM (inactive)	–	16.4 µM (inactive)	19.3 µM (inactive)	18.5 µM (inactive)
C/C=C(/C)C(=O)O[C@H]1[C@H](O)CC(c2ccc3c(c2O)C(=O)C2=C(O)C4(OC)C(=O)C(C(N)=O)=C(O)[C@H](CC(=O)c5ccccc5O)C4CC2[C@@]3(C)OC)O[C@@H]1C (stereo not given in full)	0.01 µM (active)	0.01 µM (active)	0.01 µM (active)	0.01 µM (active)	0.01 µM (active)	–	0.01 µM (active)	–	–
N=c1c2ccccc2sc2nc3ccccc3n12	> 100 µM (inactive)	> 100 µM (inactive)	–	> 100 µM (inactive)	> 100 µM (inactive)	–	> 100 µM (inactive)	> 100 µM (inactive)	85.1 µM (inactive)
Nc1ccc2n[se]nc2c1	> 100 µM (inactive)	> 100 µM (inactive)	> 100 µM (inactive)	> 100 µM (inactive)	> 100 µM (inactive)	> 100 µM (inactive)	> 100 µM (inactive)	> 100 µM (inactive)	> 100 µM (inactive)
OCCSCC/C(=N\N=C(/CCSCCO)c1ccccc1)c1ccccc1	> 100 µM (inactive)	–	49.9 µM (inactive)	82 µM (inactive)	> 100 µM (inactive)	65.8 µM (inactive)	> 100 µM (inactive)	> 100 µM (inactive)	69.2 µM (inactive)
COc1ccc(N2C(=O)C3c4[nH]c5ccc(OC)cc5c4C4CCC(C(C)(C)C)CC4C3C2=O)cc1 (stereo not given)	34.4 µM (inactive)	10.2 µM (inactive)	86.9 µM (inactive)	17.6 µM (inactive)	48.5 µM (inactive)	–	44.1 µM (inactive)	3.86 µM (inactive)	56.2 µM (inactive)
COc1ccc(C2[C@@H](Cl)C(=O)N2c2ccc(OC)cc2)cc1 (stereo not given in full)	53 µM (inactive)	62.7 µM (inactive)	–	62.8 µM (inactive)	50.5 µM (inactive)	–	–	> 100 µM (inactive)	–
CCNC(=O)/C(=C/c1ccc(OC)cc1)c1cc(OC)c(OC)c(OC)c1	11.7 µM (inactive)	3.47 µM (inactive)	3.91 µM (inactive)	24.2 µM (inactive)	14.8 µM (inactive)	32.5 µM (inactive)	> 100 µM (inactive)	23.1 µM (inactive)	17.3 µM (inactive)
